Values joined by “and” are separate entries in the source; they are usually repeats but may differ in a detail not shown here. Equal values may be shown once. Inconclusive results and toxic doses are left out.
Tested on: P388 leukemia ip, CD2F1 mice, survival T/C
Assay: NCI In Vivo Anticancer Drug Screen. Data for tumor model P388 Leukemia (intraperitoneal) in CD2F1 (CDF1) mice
Conditions: endpoint: median survival time, higher = longer survival
Outline: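 Mice carrying the transplanted tumor received test compound or vehicle. Survival was recorded in each group, and the value is the treated-group measurement divided by that of the vehicle-treated control group.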

[1] = dose: 50.0 mg/kg/injection, schedule: Q01DX009 (ip), vehicle: saline
[2] = dose: 100.0 mg/kg/injection, schedule: Q01DX009 (ip), vehicle: saline
[3] = dose: 200.0 mg/kg/injection, schedule: Q01DX009 (ip), vehicle: saline
[4] = dose: 50.0 mg/kg/injection, schedule: Q01DX009 (ip), vehicle: Klucel (hydroxypropylcellulose) (HPC)
[5] = dose: 100.0 mg/kg/injection, schedule: Q01DX009 (ip), vehicle: Klucel (hydroxypropylcellulose) (HPC)
[6] = dose: 200.0 mg/kg/injection, schedule: Q01DX009 (ip), vehicle: Klucel (hydroxypropylcellulose) (HPC)

## CC(C)(Br)C(=O)NN=C(c1ccccc1)c1ccccc1
[1]
  T/C: 100 % of control
[2]
  T/C: 100 % of control
[3]
  T/C: 100 % of control

## CC=C1CN(C)C2Cc3c([nH]c4ccccc34)C(=O)CC1C2C(=O)OC (centres undefined)
dose: 7.5 mg/kg/injection, schedule: Q01DX009 (ip), vehicle: saline + alcohol
  T/C: 107 % of control
dose: 15.0 mg/kg/injection, schedule: Q01DX009 (ip), vehicle: saline + alcohol
  T/C: 116 % of control
dose: 30.0 mg/kg/injection, schedule: Q01DX009 (ip), vehicle: saline + alcohol
  T/C: 106 % of control

## COc1cccc2c1C(=O)c1c(O)c3c(c(O)c1C2=O)C[C@@](O)(C(C)O)C[C@@H]3OC1CC(N2CCCCC2)C(O)C(C)O1 (some centres undefined)
dose: 2.5 mg/kg/injection, schedule: Q04DX003 (ip), vehicle: water
  T/C: 120 % of control
dose: 5.0 mg/kg/injection, schedule: Q04DX003 (ip), vehicle: water
  T/C: 162 % of control
dose: 10.0 mg/kg/injection, schedule: Q04DX003 (ip), vehicle: water
  T/C: 118 % of control
dose: 20.0 mg/kg/injection, schedule: Q04DX003 (ip), vehicle: water
  T/C: 110 % of control
dose: 40.0 mg/kg/injection, schedule: Q04DX003 (ip), vehicle: water
  T/C: 96 % of control

## Cc1ccc(C(=O)NC2C(=O)NC(C(C)C)C(=O)N3CCCC3C(=O)N(C)CC(=O)N(C)C(C(C)C)C(=O)OC2C)c2c1Oc1c(c(C(=O)NC3C(=O)NC(C(C)C)C(=O)N4CCCC4C(=O)N(C)CC(=O)N(C)C(C(C)C)C(=O)OC3C)c3nc(-c4ccccc4)c(=O)oc3c1C)N2 (centres undefined)
dose: 0.13 mg/kg/injection, schedule: Q01DX005 (ip), vehicle: water
  T/C: 168 % of control
dose: 0.25 mg/kg/injection, schedule: Q01DX005 (ip), vehicle: water
  T/C: 181 % of control and 240 % of control
dose: 1.0 mg/kg/injection, schedule: Q01DX005 (ip), vehicle: water
  T/C: 246 % of control

## NCCc1ccc(N)cc1
[1]
  T/C: 100 % of control and 105 % of control
[2]
  T/C: 100 % of control and 96 % of control
[3]
  T/C: 86 % of control

## Cc1ccc(C2ON2S(=O)(=O)c2ccc(C)cc2)cc1 (centres undefined)
[4]
  T/C: 113 % of control
[5]
  T/C: 105 % of control
[6]
  T/C: 100 % of control

## CCO/C=C1/N=C(c2ccc(Cl)c([N+](=O)[O-])c2)OC1=O
dose: 60.0 mg/kg/injection, schedule: Q01DX005 (ip), vehicle: saline with Tween-80
  T/C: 108 % of control
dose: 120.0 mg/kg/injection, schedule: Q01DX005 (ip), vehicle: saline with Tween-80
  T/C: 106 % of control
dose: 240.0 mg/kg/injection, schedule: Q01DX005 (ip), vehicle: saline with Tween-80
  T/C: 107 % of control

## O=C1CS(=O)(=O)C(c2ccc(Cl)cc2)N1N1C(=O)CS(=O)(=O)C1c1ccc(Cl)cc1 (centres undefined)
dose: 25.0 mg/kg/injection, schedule: Q01DX005 (ip), vehicle: saline with Tween-80
  T/C: 98 % of control and 109 % of control
dose: 50.0 mg/kg/injection, schedule: Q01DX005 (ip), vehicle: saline with Tween-80
  T/C: 95 % of control and 96 % of control
dose: 100.0 mg/kg/injection, schedule: Q01DX005 (ip), vehicle: saline with Tween-80
  T/C: 87 % of control and 95 % of control

## COc1cc2c(cc1OC)C1C(O)C(OC)C(O)C3=CCN(C2)C31 (centres undefined)
[1]
  T/C: 100 % of control
[2]
  T/C: 104 % of control
[3]
  T/C: 102 % of control

## CC(=O)Nc1ccc(OCCOC(=O)Nc2ccc(C)cc2[N+](=O)[O-])cc1
[4]
  T/C: 88 % of control

## CC(C)(S)C(N)C(=O)O (centres undefined)
[4]
  T/C: 98 % of control
[5]
  T/C: 105 % of control
[6]
  T/C: 94 % of control

## CCOC(=O)C1=C(c2ccccc2)OC(N)=C(C#N)C1c1ccc(C)cc1 (centres undefined)
dose: 50.0 mg/kg/injection, schedule: Q01DX005 (ip), vehicle: Klucel (hydroxypropylcellulose) (HPC)
  T/C: 113 % of control
dose: 100.0 mg/kg/injection, schedule: Q01DX005 (ip), vehicle: Klucel (hydroxypropylcellulose) (HPC)
  T/C: 101 % of control
dose: 200.0 mg/kg/injection, schedule: Q01DX005 (ip), vehicle: Klucel (hydroxypropylcellulose) (HPC)
  T/C: 103 % of control

## C=C1C(=O)O[C@H]2C3OC3(C)CC/C=C(/C(=O)OC)[C@@H](OC(C)=O)[C@H](OC(=O)C3(C)OC3C)[C@H]12 (some centres undefined)
dose: 1.87 mg/kg/injection, schedule: Q01DX009 (ip), vehicle: Klucel (hydroxypropylcellulose) (HPC)
  T/C: 112 % of control
dose: 3.75 mg/kg/injection, schedule: Q01DX009 (ip), vehicle: Klucel (hydroxypropylcellulose) (HPC)
  T/C: 108 % of control
dose: 7.5 mg/kg/injection, schedule: Q01DX009 (ip), vehicle: Klucel (hydroxypropylcellulose) (HPC)
  T/C: 107 % of control
